# Test results as given in patent US20040063662A1, “Selenophene anti-tumor agents” (priority 1996, published 2004).
# Where two headings read alike, the source gives them in different places.
# What was measured:
# HL-60(TB) = assay: NCI human tumor cell panel: HL-60(TB) (Leukemia); assay type: cell-based; details: read-out: Log10 GI50 (converted)
# SR = assay: NCI human tumor cell panel: SR (Leukemia); assay type: cell-based
# EKVX = assay: NCI human tumor cell panel: EKVX (Non-Small Cell Lung Cancer); assay type: cell-based
# HOP-62 = assay: NCI human tumor cell panel: HOP-62 (Non-Small Cell Lung Cancer); assay type: cell-based
# NCI-H226 = assay: NCI human tumor cell panel: NCI-H226 (Non-Small Cell Lung Cancer); assay type: cell-based
# NCI-H23 = assay: NCI human tumor cell panel: NCI-H23 (Non-Small Cell Lung Cancer); assay type: cell-based
# NCI-H322M = assay: cells; assay type: cell-based; details: Homo sapiens
# COLO 205 = assay: NCI human tumor cell panel: COLO 205 (Colon Cancer); assay type: cell-based
# HCT-15 = assay: NCI human tumor cell panel: HCT-15 (Colon Cancer); assay type: cell-based
# HT29 = assay: NCI human tumor cell panel: HT29 (Colon Cancer); assay type: cell-based
# KM12 = assay: NCI human tumor cell panel: KM12 (Colon Cancer); assay type: cell-based
# SW-620 = assay: NCI human tumor cell panel: SW-620 (Colon Cancer); assay type: cell-based
# SF-268 = assay: NCI human tumor cell panel: SF-268 (CNS Cancer); assay type: cell-based
# SF-539 = assay: NCI human tumor cell panel: SF-539 (CNS Cancer); assay type: cell-based
# MALME-3M = assay: NCI human tumor cell panel: MALME-3M (Melanoma); assay type: cell-based; details: Malme-3M
# SK-MEL-2 = assay: NCI human tumor cell panel: SK-MEL-2 (Melanoma); assay type: cell-based
# SK-MEL-28 = assay: NCI human tumor cell panel: SK-MEL-28 (Melanoma); assay type: cell-based
# UACC-62 = assay: NCI human tumor cell panel: UACC-62 (Melanoma); assay type: cell-based
# OVCAR-4 = assay: NCI human tumor cell panel: OVCAR-4 (Ovarian Cancer); assay type: cell-based
# OVCAR-5 = assay: NCI human tumor cell panel: OVCAR-5 (Ovarian Cancer); assay type: cell-based
# A498 = assay: NCI human tumor cell panel: A498 (Renal Cancer); assay type: cell-based
# CAKI-1 = assay: NCI human tumor cell panel: CAKI-1 (Renal Cancer); assay type: cell-based
# RXF-393 = assay: NCI human tumor cell panel: RXF-393 (Renal Cancer); assay type: cell-based
# SN12C = assay: NCI human tumor cell panel: SN12C (Renal Cancer); assay type: cell-based
# MDA-MB-231/ATCC = assay: NCI human tumor cell panel: MDA-MB-231/ATCC (Breast Cancer); assay type: cell-based
# NCI-H522 = assay: NCI human tumor cell panel: NCI-H522 (Non-Small Cell Lung Cancer)
# [1] = system: panel of sixty different human tumor cell lines; assay: NCI human tumor cell panel: whole panel (mean graph summary); details: for CC50: Homo sapiens
# [2] = read-out: Log10 GI50 (converted)
# [3] = read-out: Log10 TGI (converted)
smiles,measurement,setting,value
OCc1ccc(-c2ccc(-c3ccc(CO)[se]3)[se]2)[se]1 [compound 675247],GI50,HL-60(TB),4.07 µM
same,GI50,SR; [2],3.72 µM
same,IC (TGI),SR; [3],> 100 µM
same,GI50,EKVX; [2],5.01 µM
same,IC (TGI),EKVX; [3],34.7 µM
same,GI50,"HOP-62; HOP-62, read-out: Log10 GI50 (converted)",5.5 µM
same,IC (TGI),"HOP-62; HOP-62, read-out: Log10 TGI (converted)",21.4 µM
same,GI50,"NCI-H226; NCI-H226, read-out: Log10 GI50 (converted)",1.7 µM
same,IC (TGI),"NCI-H226; NCI-H226, read-out: Log10 TGI (converted)",3.89 µM
same,GI50,"NCI-H23; NCI-H23, read-out: Log10 GI50 (converted)",6.61 µM
same,IC (TGI),"NCI-H23; NCI-H23, read-out: Log10 TGI (converted)",25.1 µM
same,GI50,NCI-H322M; [2],11.2 µM
same,IC (TGI),NCI-H322M; [3],24.5 µM
same,GI50,"COLO 205; COLO 205, read-out: Log10 GI50 (converted)",1.95 µM
same,IC (TGI),"COLO 205; COLO 205, read-out: Log10 TGI (converted)",5.13 µM
same,GI50,"HCT-15; HCT-15, read-out: Log10 GI50 (converted)",3.8 µM
same,IC (TGI),"HCT-15; HCT-15, read-out: Log10 TGI (converted)",12.3 µM
same,GI50,"HT29; HT-29, HT29, read-out: Log10 GI50 (converted)",1.62 µM
same,IC (TGI),"HT29; HT-29, HT29, read-out: Log10 TGI (converted)",7.59 µM
same,GI50,"KM12; KM12, read-out: Log10 GI50 (converted)",4.47 µM
same,IC (TGI),"KM12; KM12, read-out: Log10 TGI (converted)",15.1 µM
same,GI50,"SW-620; SW-620, read-out: Log10 GI50 (converted)",1.35 µM
same,IC (TGI),"SW-620; SW-620, read-out: Log10 TGI (converted)",3.63 µM
same,GI50,"SF-268; SF-268, read-out: Log10 GI50 (converted)",1.74 µM
same,IC (TGI),"SF-268; SF-268, read-out: Log10 TGI (converted)",4.37 µM
same,GI50,"SF-539; SF-539, read-out: Log10 GI50 (converted)",17.4 µM
same,IC (TGI),"SF-539; SF-539, read-out: Log10 TGI (converted)",40.7 µM
same,GI50,MALME-3M; [2],2.88 µM
same,IC (TGI),MALME-3M; [3],10.7 µM
same,GI50,"SK-MEL-2; SK-MEL-2, read-out: Log10 GI50 (converted)",7.08 µM
same,IC (TGI),"SK-MEL-2; SK-MEL-2, read-out: Log10 TGI (converted)",24 µM
same,GI50,"SK-MEL-28; SK-MEL-28, read-out: Log10 GI50 (converted)",5.13 µM
same,IC (TGI),"SK-MEL-28; SK-MEL-28, read-out: Log10 TGI (converted)",> 100 µM
same,GI50,"UACC-62; UACC-62, read-out: Log10 GI50 (converted)",0.155 µM
same,IC (TGI),"UACC-62; UACC-62, read-out: Log10 TGI (converted)",2.45 µM
same,GI50,"OVCAR-4; OVCAR-4, read-out: Log10 GI50 (converted)",1.7 µM
same,IC (TGI),"OVCAR-4; OVCAR-4, read-out: Log10 TGI (converted)",6.92 µM
same,GI50,"OVCAR-5; OVCAR-5, read-out: Log10 GI50 (converted)",1.32 µM
same,IC (TGI),"OVCAR-5; OVCAR-5, read-out: Log10 TGI (converted)",12.9 µM
same,GI50,"A498; A498, read-out: Log10 GI50 (converted)",0.38 µM
same,IC (TGI),"A498; A498, read-out: Log10 TGI (converted)",1.41 µM
same,GI50,"CAKI-1; CAKI-1, read-out: Log10 GI50 (converted)",0.0741 µM
same,IC (TGI),"CAKI-1; CAKI-1, read-out: Log10 TGI (converted)",0.468 µM
same,GI50,"RXF-393; RXF-393, read-out: Log10 GI50 (converted)",1.58 µM
same,IC (TGI),"RXF-393; RXF-393, read-out: Log10 TGI (converted)",3.72 µM
same,GI50,SN12C; [2],2.75 µM
same,IC (TGI),SN12C; [3],11.7 µM
same,GI50,"MDA-MB-231/ATCC; Homo sapiens, MDA-MB-231, MDA-MB-231/ATCC, read-out: Log10 GI50 (converted)",5.01 µM
same,Log10 GI50,MDA-MB-231/ATCC; MDA-MB-231/ATCC,−5.27
same,GI50,"NCI-H522; NCI-H522, read-out: Log10 GI50 (converted)",1.66 µM
same,IC (TGI),"NCI-H522; NCI-H522, read-out: Log10 TGI",3.39 µM
same,CC50,"[1]; read-out: Log10 LC50, MG_MID, mean over the panel (converted)",45.7 µM
same,CC50,"[1]; read-out: Log10 LC50, row head (cell line) not given (converted)",> 100 µM
same,"Log10 GI50, MG_MID",[1]; mean over the panel,−5.65
same,"Log10 TGI, Delta",[1]; whole panel,1.36
same,"Log10 TGI, Range",[1]; whole panel,2.33
